Results from PMC8335727 (Inorganic Chemistry, 2021).

Tests used:
[1] = log D7.4 by shake-flask method, n-octanol/buffered aqueous solution; format: physicochemical; settings: partitioning, n-octanol/water, pH 7.4, read-out: log D7.4 (proligand)
Experimental: Besides pKa values, lipophilicity is also an important pharmacological property of a drug, as it strongly influences the ability of the compound to pass through biological membranes. Therefore, distribution coefficients (log D7.4) were determined using the shake-flask method in an n-octanol-buffered aqueous solution at pH 7.4 (Table 1). The log D7.4 values indicate the moderate lipophilic character of the proligands. The substitution at the end nitrogen atom of the thosemicarbazide moiety and the presence of a methyl group at the Schiff base bond induce a somewhat higher lipophilicity. The presence of the phenolic moiety undoubtedly increases the log D7.4 values compared to those of FTSC (+0.73),[67]
The time-dependence of UV–vis absorption spectra was monitored for proligands HL2 at pH 7.4, 1.5 and 10.0 in 30% (v/v) DMSO/H2O, and for HL1 and HL3 at pH 7.4.
The redox reaction of the copper(II) complexes (25 µM) with GSH (1250 µM) was studied at 7.40 (50 mM HEPES buffer with 0.1 M KCl) and at 25.0 ± 0.1 °C on Hewlett Packard 8452A diode array spectrophotometer using a special, tightly closed tandem cuvette (Hellma Tandem Cell, 238-QS) as described previously.6,7 Calculation of the observed rate constants (kobs) of the redox reaction was performed by using a reported approach.6,7
Distribution coefficients (D7.4) values were determined by the traditional shake-flask method in n-octanol/buffered aqueous solution at pH 7.40 (50 mM HEPES buffer at 25.0 ± 0.2 °C as described previously in our previous work.8
2.4. Spectroelectrochemical studies
Cyclic voltammetry experiments with 0.5 mM solutions of Cu(II) complexes and corresponding ligands in 0.1 M n-Bu4NPF6 in both DMSO and methanol were performed under argon atmosphere using a three-electrode arrangement with glassy carbon 1 mm disc working electrode (from Ionode, Australia), platinum wire as counter electrode, and silver wire as pseudo -reference electrode. As a supporting e lectrolyte, 0.1 M n-Bu4NPF6 was used in DMSO (SeccoSolv max.
0.025% H2O, Merck) and 0.1 M LiClO4 (≥95.0%, Merck) in methanol. […]

[2] = test system: Colo205; experiment: MTT cytotoxicity assay, Colo205; format: cell-based; settings: Homo sapiens, COLO 205, 72 h of exposure
Experimental: The in vitro cytotoxicity of the TSCs HL^1–HL^3, copper(II) complexes Cu(HL^1)Cl2, [Cu(L^2)Cl], and Cu(HL^3)Cl2, and oxidized TSCs HL^1a′, HL^1a″, and HL^2c′·CH3COOH was tested in the doxorubicin-sensitive Colo205 and the multidrug-resistant Colo320 human colonic adenocarcinoma cell lines as well as in normal human embryonal lung fibroblast cells (MRC-5) by the colorimetric MTT assay. […]
(§1) 2.5. In vitro cell studies
(§2) 2.5.1. Cell lines and culture conditions
All cell culture reagents were obtained from Sigma-Aldrich and plastic ware from Sarstedt
(Germany). Doxorubicin-sensitive human colonic Colo 205 and multidrug resistant
Colo 320/MDR-LRP adenocarcinoma cell lines were purchased from LGC Promochem,
Teddington, UK. The cells were cultured in Roswell Park Memorial Institute (RPMI) 1640
medium supplemented with 10% heat-inactivated fetal bovine serum, 2 mM L-glutamine, 1 mM
Na-pyruvate and 100 mM Hepes. The cell lines were incubated at 37°C, in a 5% CO2, 95% air
(§3) MRC-5 human embryonal lung fibroblast cell line (ATCC CCL-171) was purchased from LGC
(§4) Promochem, Teddington, UK. The cell line was cultured in Eagle’s Minimal Essential Medi um
(§5) (EMEM, containing 4.5 g/L glucose) supplemented with a non-essential amino acid mixture, a
(§6) selection of vitamins and 10% heat-inactivated fetal bovine serum. The cells were incubated at
(§7) 37°C, in a 5% CO2, 95% air atmosphere. All cell lines were detached with Trypsin-Versene
(§8) (EDTA) solution for 5 min at 37 °C.
(§9) The tested compounds were dissolved in DMSO using 10 mM concentration. Then stock solutions
(§10) were diluted in complete culture medium in 96-well microtiter plates, and two-fold serial dilutions
(§11) of compounds were prepared in 100 µL of RPMI 1640, horizontally. The semi-adherent colonic
(§12) adenocarcinoma cells were treated with Trypsin -Versene (EDTA) solution. They were adjusted to
(§13) a density of 1×10^4 cells in 100 µL of RPMI 1640 medium, and were added to each well, with the
(§14) exception of the medium control wells. The final volume of the wells containing compounds and
(§15) cells was 200 µL. The culture were incubated at 37 °C for 72 h; at the end of the incubation period,
(§16) 20 µL of MTT solution (from a stock solution of 5 mg/mL) were added to each well. After
(§17) incubation at 37 °C for 4 h, 100 µL of SDS solution (10% in 0.01 M HCI) were added to each well
(§18) and the plates were further incubated at 37 °C overnight. The cell growth was determined using
(§19) both methods by measuring the optical density (OD) at 450 nm (ref. 620 nm) with a Multiscan EX
(§20) ELISA reader. Inhibition of the cell growth (expressed as IC 50: inhibitory concentration that
(§21) reduces by 50% the growth of the cells exposed to the tested compounds) was determined from
(§22) the sigmoid curve where 100 – ((ODsample ‒ ODmedium control)/(ODcell control ‒ ODmedium control)) × 100
(§23) values were plotted against the logarithm of compound concentrations. […]
0.76 tyrosyl radical/polypeptide. Samples containing 20 µM mR2 in 50 mM HEPES buffer, pH
7.50/100 mM NaCl, and 20 µM respective compound in 1% (v/v) DMSO/H2O, and 2 mM

[3] = test system: MRC-5; experiment: MTT cytotoxicity assay, MRC-5; format: cell-based; settings: Homo sapiens, MRC5, 72 h of exposure
Experimental: as §1, §2
All cell culture reagents were obtained from Sigma-Aldrich and plastic ware from Sarstedt […]
as §3, §4, §5, §6, §7, §8, §9, §10, §11, §12, §13, §14, §15, §16, §17, §18, §19, §20, §21, §22, §23

Cc1cc(NC(=S)NN=Cc2ncccc2N)cc(C)c1O [HL^3, 3-Amino-2-formylpyridine 4-(4-hydroxy-3,5-dimethylphenyl)thiosemicarbazone]
logD [1]: 1.67 | IC50 [2]: 48.2 ± 6.8 µM | IC50 [3]: > 100 µM

CC(=NNC(=S)Nc1cc(C)c(O)c(C)c1)c1ccccn1 [HL^2, 2-Acetylpyridine 4-(4-hydroxy-3,5-dimethylphenyl)thiosemicarbazone]
logD [1]: 2.1 | IC50 [2]: > 100 µM | IC50 [3]: > 100 µM

Cc1cc(NC(=S)NN=Cc2ccccn2)cc(C)c1O [HL^1, 2-Formylpyridine 4-(4-hydroxy-3,5-dimethylphenyl)thiosemicarbazone]
logD [1]: 1.3 | IC50 [2]: > 100 µM | IC50 [3]: > 100 µM
